The values that follow come from patent publication US20240252677A1, “ONE-COMPONENT DELIVERY SYSTEM FOR NUCLEIC ACIDS” (The Trustees of the University of Pennsylvania, priority 2021, published 2024).

Where two headings read alike, the source gives them in different places.

The subject of one series is BALB/c mice. The following applies: cited from earlier work.
Series [1] can be described thus: Serum stability of DNPs, dimensions in 1% fetal bovine serum by DLS. Type of series: physicochemical. The protocol: Sample preparation: injected 25 μL ethanol stock solution of IAJD125/155 (80 mg/mL) into the mixture of 462.5 μL acetate buffer (10 mM, pH 4.0) and 12.5 μL Luc-mRNA (4.0 mg/mL in water), followed by vortex for 5 seconds.
Final composition of DNP solution: IAJD125/155 (4.0 mg/mL)+Luc-mRNA (0.1 mg/mL) in 500 μL acetate buffer. The dimension of assemblies in solution was checked by DLS.
DNPs in 1% Serum: Serum (5.5 μL)+[500 μL solution of IAJD (4.0 mg/mL) and Luc-mRNA (0.1 mg/mL].

A short description of series [2]: Stability of DNPs by DLS after storage at 5° C. Type of series: physicochemical. The arrangement: key: Excellent: the original sizes and distribution types remained almost the same after storage; Good: the original sizes and distribution types changed slightly (size difference was less than 100 nm) or the original size remained almost the same but the DLS curve showed more size distributions after storage. Here is the method: The stability of the DNPs as assayed by DLS. All the samples are prepared in acetate buffer. The stabilities of the constructs were ranked: Excellent (in bold)—the original sizes and distribution remains almost the same after storage; Good—the original relatively big sizes became smaller or broad size distribution became narrower; Not stable—the original relatively big sizes or broad size distribution remained almost the similar level, or the original relatively small sizes became bigger or narrow size distribution became broader.

[3] abbreviates: Table 18, symmetric IAJDs, results available in the literature.
[4] abbreviates: Table 20, corresponding symmetric IAJDs (literature per Table 18).
[5] abbreviates: DNPs in acetate buffer (pH 4.0), no serum, IAJD 4.0 mg/mL + Luc-mRNA 0.1 mg/mL.

Take `CCCCC(CC)COc1cc(COC(=O)CCCN2CCN(CCO)CC2)cc(OCC(CC)CCCC)c1` (stereo not shown) [IAJD 87, 3,5-Bis((2-ethylhexyl)oxy)benzyl 4-(4-(2-hydroxyethyl)piperazin-1-yl)butanoate]: the “In vivo activity (total flux, p/s)” value with BALB/c mice (setting [3]) and with BALB/c mice (setting [4]) was 3.24 × 10^7 p/s in each case.

With `CCCCCCCCCCCCCCOc1cc(COC(=O)CCCN2CCN(C)CC2)cc(OCCCCCCCCCCCCCC)c1` [IAJD 74, 3,5-Bis(tetradecyloxy)benzyl 4-(4-methylpiperazin-1-yl)butanoate], the “In vivo activity (total flux, p/s)” value in the series with BALB/c mice (setting [3]) and with BALB/c mice (setting [4]) was 1.71 × 10^7 p/s in each case.

As to `CCCCCCCCCCCOc1cc(COC(=O)c2cc(OCCOCCOCCCC(=O)CCCN3CCCCC3)c(OCCOCCOCCOCc3ccccc3)c(OCCOCCOCCOC(=O)CCCN3CCCCC3)c2)cc(OCC(CC)CCCC)c1` (stereo not shown) [IAJD 155], the PDI in series [1] (DNPs in 1% Serum, t = 0 min) is given as 0.186; in series [1] (DNPs in 1% Serum, t = 10 min), 0.171; in series [1] (DNPs in 1% Serum, t = 20 min), 0.186; in series [1] (DNPs in 1% Serum, t = 30 min), 0.173; in series [1] (DNPs in 1% Serum, t = 40 min), 0.161; in series [1] (DNPs in 1% Serum, t = 50 min), 0.174. Besides, the PDI came out at 0.149 in series [1] (DNPs in 1% Serum, t = 60 min) and 0.256 in series [1] (setting [5]). In addition, the “Size (nm)” value is reported as 93 nm in series [1] (DNPs in 1% Serum, t = 0 min); 101 nm in series [1] (DNPs in 1% Serum, t = 10 min); 105 nm in series [1] (DNPs in 1% Serum, t = 20 min); 107 nm in series [1] (DNPs in 1% Serum, t = 30 min); 108 nm in series [1] (DNPs in 1% Serum, t = 40 min); 111 nm in series [1] (DNPs in 1% Serum, t = 50 min). Moreover, the “Size (nm)” value was found to be 108 nm in series [1] (DNPs in 1% Serum, t = 60 min) and 83 nm in series [1] (setting [5]). Further, the Ranking of stability result in series [2] (after 19 days at 5° C.) is “Excellent”.

In the case of `CCCCCCCCCCCCCCOc1cc(COC(=O)CCCN2CCN(CCO)CC2)cc(OCCCCCCCCCCC)c1` [IAJD 125, 3-(Tetradecyloxy)-5-(undecyloxy)benzyl 4-(4-(2-hydroxyethyl)piperazin-1-yl)butanoate], the PDI is on record as 0.234 in series [1] (DNPs in 1% Serum, t = 0 min); 0.290 in series [1] (DNPs in 1% Serum, t = 10 min); 0.303 in series [1] (DNPs in 1% Serum, t = 20 min); 0.256 in series [1] (DNPs in 1% Serum, t = 30 min); 0.284 in series [1] (DNPs in 1% Serum, t = 40 min); 0.339 in series [1] (DNPs in 1% Serum, t = 50 min). Besides, the PDI in series [1] (DNPs in 1% Serum, t = 60 min) was determined as 0.258; in series [1] (setting [5]), 0.273. The “Size (nm)” value amounted to 207 nm in series [1] (DNPs in 1% Serum, t = 0 min); 206 nm in series [1] (DNPs in 1% Serum, t = 10 min); 199 nm in series [1] (DNPs in 1% Serum, t = 20 min); 197 nm in series [1] (DNPs in 1% Serum, t = 30 min); 200 nm in series [1] (DNPs in 1% Serum, t = 40 min); 190 nm in series [1] (DNPs in 1% Serum, t = 50 min). The “Size (nm)” value in series [1] (DNPs in 1% Serum, t = 60 min) is on record as 194 nm; in series [1] (setting [5]), 196 nm. Besides, in series [2] (after 62 days at 5° C.), the Ranking of stability entry is listed as “Excellent”.

On to `CCCCCCCCCCCCCCCCCCOc1cc(COC(=O)CCCN2CCN(CCO)CC2)cc(OCCCCCCCCCCCCCCCCCC)c1` [IAJD 99, 3,5-Bis(octadecyloxy)benzyl 4-(4-(2-hydroxyethyl)piperazin-1-yl)butanoate], for which the “In vivo activity (total flux, p/s)” value in the series on BALB/c mice (setting [3]) and in the series on BALB/c mice (setting [4]) was 4.49 × 10^6 p/s throughout.

Consider `CCCCCCCCOc1cc(COC(=O)CCCN2CCN(C)CC2)cc(OCCCCCCCC)c1` [IAJD 88, 3,5-Bis(octyloxy)benzyl 4-(4-methylpiperazin-1-yl)butanoate], for which the “In vivo activity (total flux, p/s)” value in the series with BALB/c mice (setting [3]) is 2.34 × 10^6 p/s.

For the molecule `CCCCCCCCCCOc1cc(COC(=O)CCCN2CCN(CCO)CC2)cc(OCCCCCCCCCC)c1` [IAJD 91, 3,5-Bis(decyloxy)benzyl 4-(4-(2-hydroxyethyl)piperazin-1-yl)butanoate], the “In vivo activity (total flux, p/s)” value with BALB/c mice (setting [3]) is reported as 9.94 × 10^6 p/s.

For `CCCCC(CC)COc1cc(COC(=O)CCCN2CCN(C)CC2)cc(OCC(CC)CCCC)c1` (stereo not shown) [IAJD 76, 3,5-Bis((2-ethylhexyl)oxy)benzyl 4-(4-methylpiperazin-1-yl)butanoate], the “In vivo activity (total flux, p/s)” value in the series on BALB/c mice (setting [3]) is on record as 7.81 × 10^7 p/s.

On to `CCCCCCCCCCCCCCCCCOc1cc(COC(=O)c2cc(OCCOCCOCCCC(=O)CCCN3CCCCC3)c(OCCOCCOCCOCc3ccccc3)c(OCCOCCOCCOC(=O)CCCN3CCCCC3)c2)cc(OCCCCCCCCCCC)c1` [IAJD 158], for which the Ranking of stability entry in series [2] (after 19 days at 5° C.) is on record as “Excellent”.

Take `CCCCCCCCCCCCCCCCOc1cc(COC(=O)CCCN2CCN(C)CC2)cc(OCCCCCCCCCCCCCCC)c1` [IAJD 149, 3-(Hexadecyloxy)-5-(pentadecyloxy)benzyl 4-(4-methylpiperazin-1-yl)butanoate]: the Ranking of stability result in series [2] (after 19 days at 5° C.) is reported as “Excellent”.

Consider `CCCCCCCCCCCCOc1cc(COC(=O)CCCN2CCN(CCO)CC2)cc(OCCCCCCCCCCC)c1` [IAJD 124, 3-(Dodecyloxy)-5-(undecyloxy)benzyl 4-(4-(2-hydroxyethyl)piperazin-1-yl)butanoate], for which the Ranking of stability result in series [2] (after 62 days at 5° C.) is “Good”.

As to `CCCCCCCCCCCCCCCCCOc1cc(COC(=O)CCCN2CCN(C)CC2)cc(OCCCCCCCCCCCCCCC)c1` [IAJD 151, 3-(Heptadecyloxy)-5-(pentadecyloxy)benzyl 4-(4-methylpiperazin-1-yl)butanoate], in series [2] (after 35 days at 5° C.), the Ranking of stability entry is listed as “Excellent”.

In the case of `CCCCCCCCCCCCCCCOc1cc(COC(=O)CCCN2CCN(CCO)CC2)cc(OCCCCCCCCCC)c1` [IAJD 142, 3-(Decyloxy)-5-(pentadecyloxy)benzyl 4-(4-(2-hydroxyethyl)piperazin-1-yl)butanoate], the Ranking of stability entry in series [2] (after 27 days at 5° C.) is “Excellent”.

As for `CCCCCCCCCCCOc1cc(COC(=O)c2cc(OCCOCCOCCCC(=O)CCCN3CCCCC3)c(OCCOCCOCCOCc3ccccc3)c(OCCOCCOCCOC(=O)CCCN3CCCCC3)c2)cc(OCCCCCCCCCCC)c1` [IAJD 111], in series [2] (after 75 days at 5° C.), the Ranking of stability entry was “Excellent”.

Regarding `CCCCCCCCCCCCCCCOc1cc(COC(=O)CCCN2CCN(C)CC2)cc(OCCCCCCCCCCCCC)c1` [IAJD 145, 3-(pentadecyloxy)-5-(tridecyloxy)benzyl 4-(4-methylpiperazin-1-yl)butanoate], the Ranking of stability entry in series [2] (after 27 days at 5° C.) is reported as “Excellent”.

With `CCCCCCCCCCCCCCCCCOc1cc(COC(=O)CCCN2CCN(CCO)CC2)cc(OCCCCCCCCCCC)c1` [IAJD 127, 3-(Heptadecyloxy)-5-(undecyloxy)benzyl 4-(4-(2-hydroxyethyl)piperazin-1-yl)butanoate], the Ranking of stability result in series [2] (after 62 days at 5° C.) is listed as “Good”.

Regarding `CCCCCCCCCCCCCCCCOc1cc(COC(=O)CCCN2CCN(CCO)CC2)cc(OCCCCCCCCCCC)c1` [IAJD 120, 3-(Hexadecyloxy)-5-(undecyloxy)benzyl 4-(4-(2-hydroxyethyl)piperazin-1-yl)butanoate], in series [2] (after 70 days at 5° C.), the Ranking of stability entry is recorded as “Excellent”.

`CCCCCCCCCCCCCCCCCCOc1cc(COC(=O)CCCN2CCN(C)CC2)cc(OCCCCCCCCCCCCCCC)c1` [IAJD 153, 3-(Octadecyloxy)-5-(pentadecyloxy)benzyl 4-(4-methylpiperazin-1-yl)butanoate]: the Ranking of stability result in series [2] (after 35 days at 5° C.) is listed as “Excellent”.

For the molecule `CCCCCCCCCCCCCCCOc1cc(COC(=O)CCCN2CCN(CCO)CC2)cc(OCCCCCCCCCCCCCC)c1` [IAJD 148, 3-(Pentadecyloxy)-5-(tetradecyloxy)benzyl 4-(4-(2-hydroxyethyl)piperazin-1-yl)butanoate], the Ranking of stability entry in series [2] (after 19 days at 5° C.) is recorded as “Good”.

With `CCCCCCCCCCCCCOc1cc(COC(=O)CCCN2CCN(C)CC2)cc(OCCCCCCCCCCC)c1` [IAJD 116, 3-(Tridecyloxy)-5-(undecyloxy)benzyl 4-(4-methylpiperazin-1-yl)butanoate], in series [2] (after 62 days at 5° C.), the Ranking of stability result is on record as “Excellent”.
